We go through one substance from US12331121B2, “Efflux pump-cancer antigen multi-specific antibodies and compositions, reagents, kits and methods related thereto” (William Robert Arathoon Living Trust Dated August 29, 2016, priority 2019, dated 2025).

Test [1] relates to CTG-2616 patient-derived breast tumors. Kind of test: CTG-2616 patient-derived breast cancer model. The following applies: antibody 6 mg/kg and paclitaxel 5 mg/kg. It counts as in vivo, mice. An excerpt:
Cells: CTG-2616 is a ER^+/Her2^+ primary breast cancer, derived from a patient presenting with recurrent ductal adenocarcinoma of the breast.
Mice: 5-6-weeks-old athymic Nude-Foxn1nu female nude mice (Envigo) were used in this study.
Inoculation—Snap-Frozen pieces of patient-derived tumors were thawed, cut into 5×5×5 mm and were subcutaneously injected into anesthetized 5-6-week-old female nude mice under sterile conditions. For tumor implantation procedure, a 1-1.5 cm incision was made on the implantation site and forceps were used to implant the tumor fragment. When sufficient stock animals reached 1000-1500 mm^3, tumors were harvested for re-implantation into pre-study animals. Pre-study animals were implanted unilaterally on the left flank with tumor fragments harvested from stock animals. Each animal was implanted from a specific passage lot and documented. Pre-study tumor volumes were recorded for each experiment beginning seven to ten days after implantation. When tumors reached an average tumor volume of 150-300 mm^3, animals were matched by tumor volume into treatment or control groups to be used for dosing and dosing initiated on Day 0. All surgical procedures were conducted under sterile conditions. […]

The subject of another test is MES-SA/Dx5 cells. Kind of test: MES-SA/Dx5 subcutaneous tumors in nude mice. It is filed as in vivo. The procedure:
Cells: MES-SA/Dx5 cell line (Sigma, catalogue no 95051031) is a uterine sarcoma, derived from parent MES-SA cell line (Sigma, catalogue no 95051030), was used in this study.
Mice: 5-6-week-old female nude mice (Charles River) were used in this study.
All animal maintenance, handling, surveillance, and animal procedures were performed in accordance with and approval from the APLAC protocol.
MES-SA/Dx5 subcutaneous tumors: Once tumors reached 100-150 mm^3, mice were randomized into six groups of five mice each—(i) Control isotype IgG1 3 mg/kg, (ii) Control isotype IgG1 3 mg/kg and 20 mg/kg of paclitaxel, (iii) KNJYBisP1.1 3 mg/kg, (iv) KNJYBisP1.1 3 mg/kg and 20 mg/kg of paclitaxel, (v) KNJYBisP1.1 LALAPG 3 mg/kg and (vi) KNJYBisP1.1 LALAPG 3 mg/kg and 20 mg/kg of paclitaxel. Antibody and paclitaxel were dosed intraperitoneally twice a week for two consecutive weeks. […]

For another test, the system named is HeyT30 cells. Kind of test: HeyT30 tumors in mice. It counts as in vivo. The following applies: FIG. 19. An excerpt:
The BisP1.1 bispecific antibody was efficacious against two additional multidrug resistant (MDR) cancer cell lines in xenograft studies. The A2780ADR MDR cancer cell line expresses both CD47 and ABCB1. The HeyT30 MDR cancer cell line also expresses both CD47 and ABCB1 but at a lower level compared to A2780ADR cells (FIGS. 16 and 17). Both the A2780ADR and the HeyT30 cell lines are of ovarian origin. PE-conjugated, commercially available anti-MDR1 and anti-CD47 reagent antibodies were used; for MDR1, Biolegend Cat. No. 348606 and, CD47, Biolegend Cat. No. 323108.
A2780ADR MDR cancer cell line and HeyT30 MDR cancer cell line were injected into mice according to protocols described in Example 3. Mice were treated with BisP1.1 bispecific antibody with or without paclitaxel.

Test [2] deals with multidrug resistant N6ADR cells. Kind of test: N6ADR tumors in mice (Example 5). It is filed as in vivo. On the procedure:
Tumors formed by injecting multidrug resistant N6ADR cells in mice were treated by administering the anti-MDR1 antibody 15D3, with or without paclitaxel or administering KbisP1.1 with or without paclitaxel.

Test [3] relates to human red blood cells (RBCs). Kind of test: Binding to human erythrocytes. The conditions noted are these: FIG. 22A; in contrast to anti-CD47 5F9.
Test [4] has as its system multidrug resistant N6ADR cells. Kind of test: N6ADR tumor volume in mice (Example 2, FIG. 9). It is filed as in vivo. The following applies: antibody on day 0, 4, 7, 11; no chemotherapeutic agent. On the procedure: N6ADR cells were injected into a cohort of 6 mice per test group prior to administration of the indicated antibodies. The antibodies were administered once palpable tumors reached a size of about 100-150 mm^3 (about 7 days after injection of tumor cells). Antibodies were administered on day 0, day 4, day 7, and day 11. Tumor volumes were measured and are plotted. Panel A: 15D3/MRK16 monoclonal anti-MDR1 antibody. Panel B: KT14/MRK16 monoclonal anti-CD47 antibody. Panel C: Co-administration of 15D3/MRK16 monoclonal anti-MDR1 antibody and KT14/MRK16 monoclonal anti-CD47 antibody. Panel D: KbisP1.1 antibody.
The indicated antibodies were administered with or without the chemotherapeutic agent paclitaxel. Antibody was dosed about 1-4 hrs prior to Paclitaxel.

“KBisP1.1: bispecific anti-MDR1/anti-CD47 antibody: 15D3 heavy chain, 5F9 (KT14) heavy chain, common MRK16 light chain, human IgG1”: in test [1], the “tumor growth with paclitaxel” value is given as “tumor growth inhibition”. Further, in the test with MES-SA/Dx5 cells (3 mg/kg with paclitaxel 20 mg/kg, FIG. 29), the “chemosensitizing effect compared with monospecific antibodies” value was “stronger than either the 15D3 hybridoma or KT14 monoclonal antibodies”. Moreover, the “chemosensitization of MES-SA/Dx5 tumors to paclitaxel” value with MES-SA/Dx5 cells (antibody 3 mg/kg, paclitaxel 20 mg/kg) was “chemosensitizes”. Also, the tumor volume result in the test with HeyT30 cells (higher concentration of the antibody) is “efficacious with and without paclitaxel”; with HeyT30 cells (lower concentration of the antibody) it was “efficacious in reducing HeyT30 MDR cancer cell tumor volume with paclitaxel”. In test [2] (FIG. 21), the “chemo-sensitization of N6ADR tumor to paclitaxel” value is reported as “dose-dependent”. Besides, in test [2] (with or without paclitaxel, FIG. 20), the “efficacy against N6ADR cell tumors” value is “more efficacious than the 15D3 antibody”. Also, the “binding to human erythrocytes” value in test [3] is “no significant binding”. For the same substance, the “effect on tumor volume without paclitaxel” value in test [4] is “more efficacious than the co-administration”.
